Assay results reported in article PMC7894603 (Science translational medicine, 2020).

Tested on: Kras and Trp53 mutant (KP) lung adenocarcinoma mouse model
Type: in vivo
Conditions: IT, urine 60-120 min; for change of KP/control reporter difference over 5, 7.5 and 10.5 weeks: MeanNormPARKP/MeanNormPARControl

Sequence: GGLGPKGQTGC [PP07]
- change of KP/control reporter difference over 5, 7.5 and 10.5 weeks: amplified over time

Sequence: GGSGSKIIGGGC [PP11]
- urinary reporter in KP versus healthy mice (10.5 weeks after tumor initiation, mean-normalized PAR): most significantly enriched reporter
- change of KP/control reporter difference over 5, 7.5 and 10.5 weeks: amplified over time
